Experimental data from patent US20080293070A1, “Markers for Memory T Cells and Uses Thereof” (priority 2005, published 2008).

How the values were obtained:
Format in all cases: cell-based, human
pFOXO3a (S253) = test: FOXO3a phosphorylation (S253) in CD4+ T cells after kinase inhibitors, Western blot; details: purified CD4+ T cells pre-treated 1 hour; AKT inhibitor 10 μM, Wedelolactone 100 μM
Procedure: (§1) FIG. 7. AKT and IKK mediate FOXO3a phosphorylation and survival in CD4^+ T cell. (A) Regulation of FOXO3a phosphorylation. Purified CD4^+ T Cells were pre-treated for 1 hour with kinase inhibitors (AKT-VI, AKT inhibitor: 10 μM; STO-609, CamKK inhibitor: 5 μg/ml; Wedelolactone, IKK inhibitor: 100 μM and U0126, MEK1/2 inhibitor: 50 μM). pFoxo3a (S253) was assessed. The results are representative of two independent experiments. (B) CD4^+ T cell susceptibility to apoptosis induced upon treatment with specific kinase inhibitors. CD4^+ T cells were cultured in the presence of kinase inhibitors for 24 hrs (U0126:100 μM; STO-609:10 μg/ml; Wedelolactone and AKT-IV as indicated). After 24 h, the proportion of Annexin-V^+, propidium iodide (PI)^+ cells was quantified by flow cytometry. […] Cells were analyzed by Western Blot (WB) using Bim specific antibodies. […] The levels of pAKT were assessed by flow cytometry in TCM- and TEM-gated subsets. The results are represented as the mean fold increase ±SD, calculated as (MFI of stimulated cells/MFI of un-stimulated cells) of five independent experiments. Values of p (determined by two-tailed T-test) are shown.
(§2) Western Blotting analysis. […] HRP activity was detected using an enhanced chemiluminescence detection procedure (ECL-plus detection system, Amersham Biosciences). […] Protein expression levels were expressed as a percentage of the highest signals obtained. […]

Bim = Bim expression in CD4+ T cells in response to AKT and IKK inhibitors, Western blot; details: 24 h, AKT-IV 1.6 μM, wedelolactone 100 μM
Procedure: as §1, §2

FasL = FasL expression in CD4+ T cells after AKT and IKK inhibitors, Western blot or flow cytometry; details: data not shown
CD4+ T cells = test: Apoptosis of CD4+ T cells cultured with kinase inhibitors, Annexin-V flow cytometry; details: for proportion of Annexin-V+ cells: CD4+ T cells, 24 hrs with inhibitor; for inhibitor treatment concentration: concentration used to treat sorted TCM and TEM, what the IC50 refers to is not stated
Procedure: FIG. 7. AKT and IKK mediate FOXO3a phosphorylation and survival in CD4^+ T cell. (A) Regulation of FOXO3a phosphorylation. Purified CD4^+ T Cells were pre-treated for 1 hour with kinase inhibitors (AKT-VI, AKT inhibitor: 10 μM; STO-609, CamKK inhibitor: 5 μg/ml; Wedelolactone, IKK inhibitor: 100 μM and U0126, MEK1/2 inhibitor: 50 μM). pFoxo3a (S253) was assessed. The results are representative of two independent experiments. (B) CD4^+ T cell susceptibility to apoptosis induced upon treatment with specific kinase inhibitors. CD4^+ T cells were cultured in the presence of kinase inhibitors for 24 hrs (U0126:100 μM; STO-609:10 μg/ml; Wedelolactone and AKT-IV as indicated). After 24 h, the proportion of Annexin-V^+, propidium iodide (PI)^+ cells was quantified by flow cytometry. The results are depicted as a percentage of apoptotic cells within the total population and are representative of two independent experiments. (C) Bim expression levels in response to AKT and IKK inhibitors. CD4^+ T cells were treated with AKT-IV (1.6 μM) or wedelolactone (100 μM) for 24 h. Cells were analyzed by Western Blot (WB) using Bim specific antibodies. (D and E) Regulation of AKT and IKK phosphorylation in 4^+ memory subsets. (D) pIKKαβ (S176/180) protein levels in ex-vivo sorted TCM and TEM. […] (E) PBMCs, from healthy donors, were treated with H2O2 (5 mM) or Ig-cross-linked CD28 (2 Hg/ml) for 15 min at 37° C. and labeled with CD4, CD27, CD45RA and pAKT (S473) specific antibodies. The levels of pAKT were assessed by flow cytometry in TCM- and TEM-gated subsets. The results are represented as the mean fold increase ±SD, calculated as (MFI of stimulated cells/MFI of un-stimulated cells) of five independent experiments. Values of p (determined by two-tailed T-test) are shown.
(§3) Induction and quantification of apoptosis. Apoptotic cells were detected using annexin-V labeling according to the manufacturer's protocol (Biosource). The fluorescence signals were measured by flow cytometry using a BD LSRI flow cytometer (BD-Biosciences). Approximately 50,000-gated events were collected for each sample.
To confirm the importance of the phosphorylation of FOXO3a in memory T-cell survival, purified CD4^+ T cells were treated with different kinase-inhibitors, and apoptosis was assessed by flow cytometry using Annexin-V labeling. […] Moreover, we observed a significant upregulation of the levels of the pro-apoptotic molecule Bim, known to be a FOXO3a target, in cells treated with AKT or IKK inhibitors (three and eightfold respectively) (FIG. 7C). […] None of the other kinase-inhibitors tested induced apoptosis in CD4^+ T cells (FIG. 7B) even when used at much higher concentrations (data not shown). […]

pAKT (S473) = test: AKT phosphorylation (S473) in TCM- and TEM-gated PBMCs, PhosFlow; details: H2O2 5 mM, 15 min; TCM vs TEM
Procedure: as §1, with “shown. […]” for “shown.”
To assess the importance of AKT and IKK in the survival of memory T cells, we evaluated the expression of the phosphorylated forms of these proteins in TCM and TEM subsets. […]

TCM = test: Apoptosis of sorted TCM induced by kinase inhibitors, Annexin-V labeling; details: 24 h, AKT-IV 1.6 μM, wedelolactone 100 μM, n=2
Procedure: (§4) FIG. 8. Susceptibility of TCM and TEM to apoptosis induced by kinase inhibitors. Sorted TCM and TEM were cultured with or without AKT and IKK inhibitors as indicated. After 24 h, the percentage of apoptotic cells was quantified by Annexin-V-FITC labeling. Upper panel depict Results from a representative individual. Histogram plots show the percent of Annexin-V positive cells in TCM and TEM cells following a 24 h exposure to AKT or IKK-inhibitors. The dashed lines correspond to untreated cells while the plain lines correspond to cells treated with kinase-inhibitors. […] The fold increase of apoptosis is calculated as % of apoptotic cells in treated cells divided by the % of apoptotic cells in untreated cells.
as §3
(§5) After 24 h of treatment, the proportion of apoptotic cells was quantified using Annexin-V labeling (FIG. 8, top panel).

TEM = details: sorted TEM, 24 h; AKT-IV 1.6 μM, wedelolactone 100 μM; n=2
Procedure: as §4, §3, §5

pSTAT5a (Y694) = test: STAT5a phosphorylation in TCM and TEM in response to IL-2 or IL-7, flow cytometry
Procedure: (B, C and D) PBMCs from healthy donors were treated with IL-2 (100 U/ml) or IL-7 (10 ng/ml) for 15 min at 37° C. Cells were then labeled with Abs to CD4, CD27, CCR7, CD45RA and pSTAT5a. (B) Representative example of pSTAT5a expression levels. TCM-gated cells are represented in light grey and TEM-gated cells are represented in black. (C) Mean Fluorescence Intensity (MFI) of pSTAT5a level of expression measured in response to IL-2 or IL-7, in TCM and TEM (n=4). Mean pSTAT5a signal values are represented by black bars. P-values (determined by a two-tailed T-test) are shown (D) Expression level of CD127, CD25 and CD132 in ex-vivo TCM and TEM.
Flow cytometry analysis of STAT5a and AKT phosphorylation status. PBMCs were resuspended at 20 millions/ml in RPMI and incubated for 30 min in the presence of CCR7-FITC abs (20 μl/million cells) at room temperature. The cells were then washed and re-suspended at a cell concentration of 5 millions per ml in PBS and stimulated for 15 min at 37° C. in the presence of IL-2 (100 U/ml) or IL-7 (10 ng/ml). Following stimulation, the cells were fixed for 10 min at 37 degrees using cytofix buffer (BD Biosciences), pelleted and then permeabilized in PERM-III buffer (BD Biosciences) for 30 min on ice. […]
The phosphorylated form of STAT5a (Y694) (pSTAT5a) was quantified by flow cytometry.

[1] = system: pFOXO3a (S253, S315 and T32); test: FOXO3a phosphorylation in CD4+ T cells in response to TCR and cytokine engagement, Western blot; details: 30 min, IL-7 10 ng/ml, IL-2 100 U/ml
Procedure: (A) CD4^+ T cells were cultured in the presence of anti-CD3 (2 μg/ml), anti-CD28 (2 μg/ml), anti-CD3+CD28, IL-2 (100 U/ml), IL-7 (10 ng/ml), IFN-γ (50 μg/ml) or PMA (50 ng/ml) for 15 min and analyzed by Western Blot for pFOXO3a (S315 and S253) expression levels. The results are representative of two independent experiments. (B) CD4^+ T cells were cultured in the presence of anti-CD3/anti-CD28, IL-2 (100 U/ml), IL-7 (10 ng/ml) for 30 min and analyzed by Western Blot for pFOXO3a (T32) expression levels.
Western Blotting analysis. […] Cells were washed twice with PBS and re-suspended in lysis buffer containing 50 mM NaF and 1 mM sodium pyrophosphate. Proteins from total cell extracts (10 μg) were separated on SDS-PAGE and electrotransfered onto PVDF membranes (Roche, Indianapolis, Ind.). Membranes were incubated overnight at 4° C. with specific antibodies as described in the figure legends. Detection of the immune complexes was performed using horseradish peroxidase (HRP)-conjugated goat anti-mouse (1:2500) or goat anti-rabbit IgG antibodies (1:3000). HRP activity was detected using an enhanced chemiluminescence detection procedure (ECL-plus detection system, Amersham Biosciences). Membranes were subsequently stripped and restained with an anti-actin Abs (1:10000). […] Protein expression levels were expressed as a percentage of the highest signals obtained.

CC[n+]1c(/C=C/N(C)c2ccccc2)n(-c2ccccc2)c2ccc(-c3nc4ccccc4s3)cc21.[I-] [AKT-IV]
expression levels of pFOXO3a (S253), fold lower as compared to untreated cells (pFOXO3a (S253)): eightfold
upregulation of Bim levels (Bim): three
levels of FasL expression (FasL): did not change
proportion of Annexin-V+ cells (CD4+ T cells): increased in a dose-dependant fashion
inhibitor treatment concentration (CD4+ T cells): 1.6 µM

OO [H2O2]
induction of pAKT (S473) (pAKT (S473)): higher in TCM than TEM

COc1cc(O)c2c(c1)oc(=O)c1c3cc(O)c(O)cc3oc21 [Wedelolactone]
expression levels of pFOXO3a (S253), fold lower as compared to untreated cells (pFOXO3a (S253)): 4.5 fold
upregulation of Bim levels (Bim): eightfold
increase in Annexin-V+ cells relative to untreated cells (TCM): eightfold
levels of FasL expression (FasL): did not change
proportion of Annexin-V+ cells (CD4+ T cells): increased in a dose-dependant fashion
inhibitor treatment concentration (CD4+ T cells; Homo sapiens, CD4+ T): 100 µM
increase in Annexin-V+ cells relative to untreated cells (TEM): twofold

B1: IL-7: cytokine purchased from R&D systems (protein, UniProt P13232 26-177, looked up)
Interleukin-7: DCDIEGKDGKQYESVLMVSIDQLLDSMKEIGSNCLNNEFNFFKRHICDANKEGMFLFRAARKLRQFLKMNSTGDFDLHLLKVSEGTTILLNCTGQVKGRKPAALGEAQPTKSLEENKSLKEQKKLNDLCFLKRLLQEIKTCWNKILMGTKEH
proportion of cells that up-regulated pSTAT5a, higher in TCM as compared to TEM (pSTAT5a (Y694); IL-7 10 ng/ml, 15 min, p<0.002): 30%±6.5
pSTAT5a response (pSTAT5a (Y694); both TCM and TEM, brief IL-7 treatment): upregulated pSTAT5a
levels of pFOXO3a at T32 [1]: threefold
